Experimental data published in ChEMBL document CHEMBL3808382, “Discovery and Structure-Activity Relationship of a Bioactive Fragment of ELABELA that Modulates Vascular and Cardiac Functions” (J Med Chem, 2016).
Calls of active or inactive are those of the source. No cut-off for these calls is given here.

Legend:
[1] = target: T1, Apelin receptor (Homo sapiens, UniProt P35414); test: Agonist activity at human APJ receptor expressed in HEK-293 cells assessed as beta-arrestin2 recruitment after 30 mins by BRET assay; assay type: cell-based, HEK293
T1 sequence (P35414 whole entry): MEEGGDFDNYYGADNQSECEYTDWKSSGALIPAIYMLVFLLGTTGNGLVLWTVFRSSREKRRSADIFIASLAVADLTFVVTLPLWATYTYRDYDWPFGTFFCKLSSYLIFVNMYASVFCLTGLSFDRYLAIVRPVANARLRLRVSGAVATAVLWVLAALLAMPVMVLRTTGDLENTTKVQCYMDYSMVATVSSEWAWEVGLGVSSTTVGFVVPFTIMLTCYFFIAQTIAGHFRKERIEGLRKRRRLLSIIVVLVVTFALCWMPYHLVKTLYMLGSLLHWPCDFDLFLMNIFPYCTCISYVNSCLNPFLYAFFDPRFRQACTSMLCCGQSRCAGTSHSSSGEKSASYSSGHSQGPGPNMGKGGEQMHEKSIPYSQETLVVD

[2] = target: T1, Apelin receptor; test: Agonist activity at human APJ receptor expressed in HEK-293 cells assessed as dissociation of G-alpha-i1 protein after 5 mins by BRET assay; assay type: cell-based, HEK293
[3] = target: T1, Apelin receptor; test: biochemical; assay type: cell-based, HEK293
[4] = tested on: Plasma; test: Drug level in rat plasma treated with ELA at 37 degC after 2 hrs by HPLC-MS analysis; assay type: ADME, cell-free
[5] = tested on: Rattus norvegicus; test: Hypotensive activity in anesthetized Sprague-Dawley rat assessed as drop in mean arterial pressure at 650 nmol/kg, iv as bolus dose; assay type: functional, Artery
[6] = tested on: Rattus norvegicus; test: Hypotensive activity in anesthetized Sprague-Dawley rat assessed as maximal change in heart rate at 293 nmol/kg, iv as bolus dose; assay type: functional, organism-based
[7] = tested on: Rattus norvegicus; test: Inotropic activity in Sprague-Dawley rat assessed as induction of left ventricular fractional shortening at 36 pmol/g/min, iv through 24 hrs infusion measured after 6 to 24 hrs by echocardiography; assay type: functional, organism-based; conditions: Heart left ventricle
[8] = tested on: Rattus norvegicus; test: Decrease in urine osmolality in Sprague-Dawley rat at 36 pmol/g/min, iv through 24 hrs infusion relative to control; assay type: functional, organism-based
[9] = tested on: Heart; test: Inotropic activity in Langendorff perfused Sprague-Dawley rat heart assessed as increase in left ventricular developed pressure at 0.03 nM relative to control; assay type: functional; conditions: Heart left ventricle
[10] = tested on: Rattus norvegicus; test: Change in plasma volume in Sprague-Dawley rat at 36 pmol/g/min, iv through 24 hrs infusion measured during compound dosing; assay type: functional, organism-based
[11] = tested on: Rattus norvegicus; test: Decrease in Na+ concentration in Sprague-Dawley rat urine at 36 pmol/g/min, iv through 24 hrs infusion relative to control; assay type: functional, organism-based
[12] = tested on: Rattus norvegicus; test: Hypotensive activity in anesthetized Sprague-Dawley rat assessed as induction of hypotensive rebound at 6.5 to 293 nmol/kg, iv as bolus dose; assay type: functional, organism-based
[13] = tested on: Rattus norvegicus; test: Decrease in K+ concentration in Sprague-Dawley rat urine at 36 pmol/g/min, iv through 24 hrs infusion relative to control; assay type: functional, organism-based
[14] = tested on: Rattus norvegicus; test: Change in water intake in Sprague-Dawley rat at 36 pmol/g/min, iv through 24 hrs infusion measured during compound dosing; assay type: functional, organism-based
[15] = tested on: Rattus norvegicus; test: Increase in daily urine output in Sprague-Dawley rat at 36 pmol/g/min, iv through 24 hrs infusion measured during compound dosing; assay type: functional, organism-based
[16] = tested on: Rattus norvegicus; test: Hypotensive activity in anesthetized Sprague-Dawley rat at 65 nmol/kg, iv as bolus dose; assay type: functional, organism-based
[17] = tested on: Heart; test: Inotropic activity in Langendorff perfused Sprague-Dawley rat heart assessed as increase in left ventricular developed pressure; assay type: functional, tissue-based; conditions: Heart left ventricle
[18] = Half life in rat plasma at 37 degC; assay type: ADME, cell-free

CSCC[C@H](NC(=O)[C@@H]1CSSC[C@H](N)C(=O)N[C@@H](CC(C)C)C(=O)N[C@@H](CCC(N)=O)C(=O)N[C@@H](CCCNC(=N)N)C(=O)N[C@@H](CCCNC(=N)N)C(=O)N1)C(=O)N1CCC[C@H]1C(=O)N[C@@H](CC(C)C)C(=O)N[C@@H](Cc1cnc[nH]1)C(=O)N[C@@H](CO)C(=O)N[C@@H](CCCNC(=N)N)C(=O)N[C@H](C(=O)N1CCC[C@H]1C(=O)N[C@@H](Cc1ccccc1)C(=O)N1CCC[C@H]1C(=O)O)C(C)C
EC50 [1]: 151 nM
EC50 [2]: 6.6 nM
Ki [3]: 0.23 nM

CSCC[C@H](NC(=O)[C@@H]1CSSC[C@H](NC(=O)[C@H](CC(N)=O)NC(=O)[C@H](Cc2c[nH]cn2)NC(=O)[C@H](CCCCN)NC(=O)[C@H](CCCNC(=N)N)NC(=O)[C@H](CC(C)C)NC(=O)[C@@H](N)CCCCN)C(=O)N[C@@H](CC(C)C)C(=O)N[C@@H](CCC(N)=O)C(=O)N[C@@H](CCCNC(=N)N)C(=O)N[C@@H](CCCNC(=N)N)C(=O)N1)C(=O)N1CCC[C@H]1C(=O)N[C@@H](CC(C)C)C(=O)N[C@@H](Cc1c[nH]cn1)C(=O)N[C@@H](CO)C(=O)N[C@@H](CCCNC(=N)N)C(=O)N[C@H](C(=O)N1CCC[C@H]1C(=O)N[C@@H](Cc1ccccc1)C(=O)N1CCC[C@H]1C(=O)O)C(C)C
Drug metabolism [4]: metabolite_detected

CSCC[C@H](NC(=O)[C@@H](N)CS)C(=O)N1CCC[C@H]1C(=O)N[C@@H](CC(C)C)C(=O)N[C@@H](Cc1cnc[nH]1)C(=O)N[C@@H](CO)C(=O)N[C@@H](CCCNC(=N)N)C(=O)N[C@H](C(=O)N1CCC[C@H]1C(=O)N[C@@H](Cc1ccccc1)C(=O)N1CCC[C@H]1C(=O)O)C(C)C
Activity [5]: 10 mmHg

CSCC[C@@H](NC(=O)[C@@H](CS)NC(=O)[C@@H](CCCNC(=N)N)NC(=O)[C@H](CCCNC(=N)N)NC(=O)[C@H]1CCC(=O)N1)C(=O)N1CCC[C@@H]1C(=O)N[C@H](CC(C)C)C(=O)N[C@H](Cc1cnc[nH]1)C(=O)N[C@H](CO)C(=O)N[C@H](CCCNC(=N)N)C(=O)N[C@@H](C(=O)N1CCC[C@@H]1C(=O)N[C@H](Cc1ccccc1)C(=O)N1CCC[C@@H]1C(=O)O)C(C)C
Activity [6]: Active
Activity [7]: Active
Activity [8]: Active
Activity [9]: Active
Activity [10]: inactive
Activity [11]: Active
Activity [12]: inactive
Activity [13]: Active
Activity [14]: inactive
Activity [15]: Active

CSCC[C@H](NC(=O)[C@H](N)CS)C(=O)N1CCC[C@H]1C(=O)N[C@@H](CC(C)C)C(=O)N[C@@H](Cc1cnc[nH]1)C(=O)N[C@@H](CO)C(=O)N[C@@H](CCCNC(=N)N)C(=O)N[C@H](C(=O)N1CCC[C@H]1C(=O)N[C@@H](Cc1ccccc1)C(=O)N1CCC[C@H]1C(=O)O)C(C)C
Activity [16]: inactive

H-QRPVNLTMR-OH
Drug metabolism [4]: metabolite_detected

CSCC[C@H](NC(=O)[C@H](CS)NC(=O)[C@H](CCCNC(=N)N)NC(=O)[C@H](CCCNC(=N)N)NC(=O)[C@@H]1CCC(=O)N1)C(=O)N1CCC[C@H]1C(=O)N[C@@H](CC(C)C)C(=O)N[C@@H](Cc1cnc[nH]1)C(=O)N[C@@H](CO)C(=O)N[C@@H](CCCNC(=N)N)C(=O)N[C@H](C(=O)N1CCC[C@H]1C(=O)N[C@@H](Cc1ccccc1)C(=O)N1CCC[C@H]1C(=O)O)C(C)C
EC50 [17]: 0.0015 nM
half-life [18]: < 2 min
